Experimental data: ChEMBL document CHEMBL1141964, “Molecular docking and 3D-QSAR on 2-(oxalylamino) benzoic acid and its analogues as protein tyrosine phosphatase 1B inhibitors” (Bioorg Med Chem Lett, 2005)

Biological target: T1, Tyrosine-protein phosphatase non-receptor type 1 (Homo sapiens, UniProt P18031)
T1 sequence (P18031 whole entry): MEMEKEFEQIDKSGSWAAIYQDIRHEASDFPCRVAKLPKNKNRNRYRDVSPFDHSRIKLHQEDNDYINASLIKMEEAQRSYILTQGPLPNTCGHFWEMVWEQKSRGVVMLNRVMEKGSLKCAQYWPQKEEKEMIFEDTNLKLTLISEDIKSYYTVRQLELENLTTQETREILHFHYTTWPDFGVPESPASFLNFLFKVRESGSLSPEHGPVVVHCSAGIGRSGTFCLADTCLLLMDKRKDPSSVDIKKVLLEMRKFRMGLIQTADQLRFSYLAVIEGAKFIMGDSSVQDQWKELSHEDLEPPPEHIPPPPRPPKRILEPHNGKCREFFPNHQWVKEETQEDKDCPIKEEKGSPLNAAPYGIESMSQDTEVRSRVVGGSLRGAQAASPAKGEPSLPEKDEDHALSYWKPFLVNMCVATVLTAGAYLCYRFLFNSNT
Experiment: Binding affinity to PTP1B

Ki: 2200 nM
Compound: O=C(O)C(=O)Nc1sc2c(c1C(=O)O)CCC1(C2)OCCO1
